Measurements taken from patent publication US5096884A, “Glidobactin PF-1 peptide antibiotics” (Bristol-Myers Squibb Company, priority 1990, dated 1992).
Values after ≈ are worked out from the molar mass of the structure shown. Read-outs that look alike come from different tables or passages of the source.

Tests used:
[1] = tested on: DNA synthesis in L1210 murine leukemia cells; test: Inhibition of macromolecule synthesis, 3H-thymidine incorporation; assay type: cell-based; settings: for IC50, DNA synthesis: L1210 cells, 3H-thymidine, 4 hrs; for inhibitory effect on DNA synthesis (in words): at 100 μg/mL, the highest concentration tested
Description: (§1) Inhibitory effects of glidobactins A and PF-1 on macromolecule biosynthesis (DNA, RNA, and protein) were determined in cultured L1210 murine leukemia cells. The cells (5×10^5 cells/mL) were incubated with test compounds at 37° C. for 15 min and further incubated for 4 hrs after the addition of labeled precursor, ^3 H-thymidine, ^14 C-uridine, or ^3 H-leucine into the cultured mixture. After washing with chilled 5% trichloroacetic acid solution, the radioactivity incorporated into the acid-insoluble fraction of the cells was determined by a liquid scintillation counter.

P388 Leukemia (ip) = settings: for T/C % of MST: ip, QD1→9, ≥125% significant; for maximum T/C value: P388 leukemia, ip daily for 9 days
Description: (§2) In vivo antitumor activity of glidobactin PF-1 was determined in experimental mouse tumor systems. Female CDF1 and male BDF1 mice were intraperitoneally inoculated with 0.4 mL of diluted ascitic fluid containing 10^6 lymphocytic leukemia P388 cells and 0.5 mL of 10% melanotic melanoma B16 brei, respectively. Test compounds were intraperitoneally administered daily for 9 days starting from 1 day after the tumor implantation.

[2] = tested on: RNA synthesis in L1210 murine leukemia cells; test: Inhibition of macromolecule synthesis, 14C-uridine incorporation; assay type: cell-based; settings: for IC50, RNA synthesis: L1210 cells, 14C-uridine, 4 hrs; for inhibitory effect on RNA synthesis (in words): at 100 μg/mL, the highest concentration tested
Description: as §1

[3] = tested on: B16-F10 (murine melanoma) cells; assay type: cell-based; settings: for IC50: B16-F10 cells, 72 hrs
Description: (§3) Glidobactin PF-1 and glidobactin A were tested for in vitro cytotoxicity against murine tumor cell lines and for in vivo antitumor activity in mice. Mitomycin C was used as a reference compound in both in vitro and in vivo experiments. B16-F10 (murine melanoma) cells were grown to the logarithmic phase in an enriched Eagle minimum essential medium supplemented with fetal calf serum (FCS, 10%) and kanamycin (60 μg/ml). P388 (murine lymphocytic leukemia) cells were in RPMI1640 medium supplemented with FCS (10%), penicillin (100 U/ml), and streptomycin (100 μg/ml). B16-F10 and P388 cells were harvested and implanted into wells of a 96-well (for B16-F10 cells) and a 24-well (for P388 cells) tissue culture plate with test materials at the inoculum sizes of 3×10^4 and 2×10^4 cells/mL, respectively. They were incubated at 37° C. in a humidified atmosphere of 5% CO2 and 95% air for 72 hrs. The cytotoxicity against B16-F10 cells was colorimetrically determined at 540 nm after staining viable cells with 0.006% neutral red solution. As for P388 cells, the number of viable cells was determined by a Coulter counter.

[4] = tested on: protein synthesis in L1210 murine leukemia cells; test: Inhibition of macromolecule synthesis, 3H-leucine incorporation; assay type: cell-based; settings: for IC50, Protein synthesis / effect on protein synthesis (in words): L1210 cells; for IC50, Protein synthesis: 3H-leucine, 4 hrs
Description: as §1

Escherichia coli NIHJ = test: MIC by serial agar dilution method; assay type: cell-based; settings: Nutrient agar; inoculum 10^4 CFU/mL
[5] = tested on: Cryptococcus neoformans D49; test: MIC by serial agar dilution method; assay type: cell-based; settings: Sabouraud dextrose agar; inoculum 10^5-10^7
Piricularia oryzae D9 = settings: Sabouraud dextrose agar; inoculum 10^5-10^7
[6] = tested on: Pseudomonas aeruginosa A9930; test: MIC by serial agar dilution method; assay type: cell-based; settings: Nutrient agar; inoculum 10^4 CFU/mL
[7] = tested on: Candida albicans IAM 4888; test: MIC by serial agar dilution method; assay type: cell-based; settings: Sabouraud dextrose agar; inoculum 10^5-10^7
Mucor spinosus IFO 5317 = test: MIC by serial agar dilution method; assay type: cell-based; settings: Sabouraud dextrose agar; inoculum 10^5-10^7
Candida albicans A9540 = test: MIC by serial agar dilution method; assay type: cell-based; settings: Sabouraud dextrose agar; inoculum 10^5-10^7
[8] = tested on: Blastomyces dermatitidis IFO 8144; test: MIC by serial agar dilution method; assay type: cell-based; settings: Sabouraud dextrose agar; inoculum 10^5-10^7
[9] = tested on: Staphyloccoccus aureus 209P; test: MIC by serial agar dilution method; assay type: cell-based; settings: Nutrient agar; inoculum 10^4 CFU/mL
[10] = tested on: Klebsiella pneumoniae D 11; test: MIC by serial agar dilution method; assay type: cell-based; settings: Nutrient agar; inoculum 10^4 CFU/mL
[11] = tested on: Trichophyton mentagrophytes D155; test: MIC by serial agar dilution method; assay type: cell-based; settings: Sabouraud dextrose agar; inoculum 10^5-10^7
[12] = tested on: Bacillus subtilis PCI 219; test: MIC by serial agar dilution method; assay type: cell-based; settings: Nutrient agar; inoculum 10^4 CFU/mL
[13] = tested on: Streptoccoccus faecalis A9612; test: MIC by serial agar dilution method; assay type: cell-based; settings: Nutrient agar; inoculum 10^4 CFU/mL
[14] = tested on: Fusarium moniliforme A2284; test: MIC by serial agar dilution method; assay type: cell-based; settings: Sabouraud dextrose agar; inoculum 10^5-10^7
[15] = tested on: Sporothrix schenckii IFO 8158; test: MIC by serial agar dilution method; assay type: cell-based; settings: Sabouraud dextrose agar; inoculum 10^5-10^7
[16] = tested on: Aspergillus fumigatus IAM 2530; test: MIC by serial agar dilution method; assay type: cell-based; settings: Sabouraud dextrose agar; inoculum 10^5-10^7
bacteria tested = test: In vitro antibacterial activity; assay type: cell-based; settings: at 100 μg/ml
Description: (§4) The minimum inhibitory concentrations (MIC's) of glidobactin PF-1 were determined for various microorganisms by a serial agar dilution method. Nutrient agar (Eiken) was used for bacteria and Sabouraud dextrose agar (Difco) for fungi. The inoculum size was adjusted to 10^4 CFU/mL for bacteria and 10^5 -10^7 for fungi. Invitro antibacterial and antifungal activities of glidobactin PF-1 are shown in Table 3 together with the activities found with glidobactin C.

B16 Melanoma (ip) = settings: for T/C % of MST: ip, QD1→9, ≥125% significant; for antitumor activity against ip-B16 melanoma (in words): at the doses tested
Description: as §2

[17] = tested on: P388 (murine lymphocytic leukemia) cells; assay type: cell-based; settings: for IC50: P388 cells, 72 hrs
Description: as §3

fungi = test: In vitro antifungal activity; assay type: cell-based
Description: as §4

SMILES: CO[C@@]12[C@H](COC(N)=O)C3=C(C(=O)C(C)=C(N)C3=O)N1C[C@@H]1N[C@@H]12 [Mitomycin C]
- IC50, DNA synthesis [1]: 1.7 mg/L (≈ 5.08 µM)
- T/C % of MST (P388 Leukemia (ip); P388, 0.031 mg/kg/day): 115%
- T/C % of MST (P388 Leukemia (ip); P388, 0.063 mg/kg/day): 140%
- T/C % of MST (P388 Leukemia (ip); P388, 0.13 mg/kg/day): 145%
- T/C % of MST (P388 Leukemia (ip); P388, 0.25 mg/kg/day): 170%
- T/C % of MST (P388 Leukemia (ip); P388, 0.5 mg/kg/day): 190%
- T/C % of MST (P388 Leukemia (ip); P388, 1 mg/kg/day): 225%
- IC50, RNA synthesis [2]: > 100 mg/L
- IC50 [3]: 0.50 mg/L (≈ 1.5 µM)
- IC50, Protein synthesis [4]: > 100 mg/L

SMILES: CCCCCCCCC/C=C/C=C/C(=O)N[C@H](C(=O)N[C@H]1C[C@@H](O)CCNC(=O)/C=C\[C@H](C)NC1=O)[C@@H](C)O [Glidobactin C, glidobactin C]
- MIC (Escherichia coli NIHJ): > 100 mg/L
- MIC [5]: 0.8 mg/L (≈ 1.46 µM)
- MIC (Piricularia oryzae D9): 6.3 mg/L (≈ 11.5 µM)
- MIC [6]: > 100 mg/L
- MIC [7]: 0.4 mg/L (≈ 0.729 µM)
- MIC (Mucor spinosus IFO 5317): 0.8 mg/L (≈ 1.46 µM)
- MIC (Candida albicans A9540): 0.2 mg/L (≈ 0.364 µM)
- MIC [8]: 3.1 mg/L (≈ 5.65 µM)
- MIC [9]: > 100 mg/L
- MIC [10]: > 100 mg/L
- MIC [11]: 0.8 mg/L (≈ 1.46 µM)
- MIC [12]: > 100 mg/L
- MIC [13]: > 100 mg/L
- MIC [14]: > 50 mg/L
- MIC [15]: > 50 mg/L
- MIC [16]: 1.6 mg/L (≈ 2.92 µM)

SMILES: CCC=CCC=CCCC=CC=CC(=O)NC(C(=O)NC1CC(O)CCNC(=O)C=CC(C)NC1=O)C(C)O (stereo not shown) [Glidobactin PF-1, glidobactin PF-1]
- MIC (Escherichia coli NIHJ): > 100 mg/L
- MIC [5]: 25 mg/L (≈ 45.9 µM)
- IC50, DNA synthesis [1]: > 100 mg/L
- inhibitory effect on DNA synthesis (in words) [1]: no significant inhibitory effect
- MIC (Piricularia oryzae D9): 12.5 mg/L (≈ 22.9 µM)
- MIC [6]: > 100 mg/L
- inhibition of the bacteria tested (in words) (bacteria tested): did not inhibit
- MIC [7]: 12.5 mg/L (≈ 22.9 µM)
- MIC (Mucor spinosus IFO 5317): 3.1 mg/L (≈ 5.69 µM)
- T/C % of MST (P388 Leukemia (ip); P388, 0.016 mg/kg/day): 118%
- T/C % of MST (P388 Leukemia (ip); P388, 0.031 mg/kg/day): 129%
- T/C % of MST (P388 Leukemia (ip); P388, 0.063 mg/kg/day): 133%
- T/C % of MST (P388 Leukemia (ip); P388, 0.13 mg/kg/day): 160%
- T/C % of MST (P388 Leukemia (ip); P388, 0.25 mg/kg/day): 170%
- T/C % of MST (P388 Leukemia (ip); P388, 0.5 mg/kg/day): 174%
- T/C % of MST (P388 Leukemia (ip); P388, 1 mg/kg/day): 130%
- maximum T/C value (P388 Leukemia (ip)): 174%
- potency against P388 relative to glidobactin A (P388 Leukemia (ip); in vivo P388, relative to glidobactin A): approximately 4 times
- T/C % of MST (B16 Melanoma (ip); B16, 0.13 mg/kg/day): 103%
- T/C % of MST (B16 Melanoma (ip); B16, 0.25 mg/kg/day): 118%
- T/C % of MST (B16 Melanoma (ip); B16, 0.5 mg/kg/day): 113%
- T/C % of MST (B16 Melanoma (ip); B16, 1 mg/kg/day): 111%
- antitumor activity against ip-B16 melanoma (in words) (B16 Melanoma (ip)): no significant antitumor activity
- IC50, RNA synthesis [2]: > 100 mg/L
- inhibitory effect on RNA synthesis (in words) [2]: no significant inhibitory effect
- MIC (Candida albicans A9540): 6.3 mg/L (≈ 11.6 µM)
- cytotoxicity (in words) [3]: potent cytotoxicity
- IC50 [3]: 0.07 mg/L (≈ 0.129 µM)
- cytotoxicity (in words) [17]: potent cytotoxicity
- IC50 [17]: 0.010 mg/L (≈ 0.0184 µM)
- MIC [8]: 12.5 mg/L (≈ 22.9 µM)
- activity against fungi (in words) (fungi): moderate activity
- intrinsic antifungal activity compared with glidobactin C (in words) (fungi; relative to glidobactin C): considerably weaker
- MIC [9]: > 100 mg/L
- MIC [10]: > 100 mg/L
- MIC [11]: 12.5 mg/L (≈ 22.9 µM)
- MIC [12]: > 100 mg/L
- MIC [13]: > 100 mg/L
- effect on protein synthesis (in words) [4]: inhibited protein synthesis
- IC50, Protein synthesis [4]: 0.07 mg/L (≈ 0.129 µM)
- inhibitory activity on protein synthesis relative to glidobactin A ([4]; relative to glidobactin A): approximately half
- MIC [14]: > 50 mg/L
- MIC [15]: > 50 mg/L
- solubility (in words) (in methanol, ethanol, n-butanol, and dimethyl sulfoxide): soluble
- solubility (in words) (in n-hexane and water): insoluble
- MIC [16]: 12.5 mg/L (≈ 22.9 µM)

SMILES: CCCCCCC/C=C/C=C/C(=O)N[C@H](C(=O)N[C@H]1C[C@@H](O)CCNC(=O)/C=C/[C@H](C)NC1=O)[C@@H](C)O [Glidobactin A, glidobactin A]
- IC50, DNA synthesis [1]: > 100 mg/L
- inhibitory effect on DNA synthesis (in words) [1]: no significant inhibitory effect
- T/C % of MST (P388 Leukemia (ip); P388, 0.031 mg/kg/day): 100%
- T/C % of MST (P388 Leukemia (ip); P388, 0.063 mg/kg/day): 110%
- T/C % of MST (P388 Leukemia (ip); P388, 0.13 mg/kg/day): 130%
- T/C % of MST (P388 Leukemia (ip); P388, 0.25 mg/kg/day): 150%
- T/C % of MST (P388 Leukemia (ip); P388, 0.5 mg/kg/day): 155%
- T/C % of MST (P388 Leukemia (ip); P388, 1 mg/kg/day): 190%
- maximum T/C value (P388 Leukemia (ip)): 190%
- T/C % of MST (B16 Melanoma (ip); B16, 0.13 mg/kg/day): 97%
- T/C % of MST (B16 Melanoma (ip); B16, 0.25 mg/kg/day): 100%
- T/C % of MST (B16 Melanoma (ip); B16, 0.5 mg/kg/day): 113%
- T/C % of MST (B16 Melanoma (ip); B16, 1 mg/kg/day): 116%
- antitumor activity against ip-B16 melanoma (in words) (B16 Melanoma (ip)): no significant antitumor activity
- IC50, RNA synthesis [2]: > 100 mg/L
- inhibitory effect on RNA synthesis (in words) [2]: no significant inhibitory effect
- cytotoxicity (in words) [3]: potent cytotoxicity
- IC50 [3]: 0.04 mg/L (≈ 0.0768 µM)
- cytotoxicity (in words) [17]: potent cytotoxicity
- IC50 [17]: 0.008 mg/L (≈ 0.0154 µM)
- effect on protein synthesis (in words) [4]: inhibited protein synthesis
- IC50, Protein synthesis [4]: 0.03 mg/L (≈ 0.0576 µM)
